In BindingDB's records for PubMed 32916382 (Zhejiang University, 2020):

Experiments:
[1] = Inhibition of IL-6 (unknown origin) by ELISA assay
[2] = Inhibition of TNF-alpha (unknown origin) by ELISA assay

SMILES | IC50 [1] | IC50 [2]
CCOP(=O)(OCC)SCCSCC | 600 nM | 1160 nM
COP(=O)(OC)Oc1ccc([N+](=O)[O-])cc1 | 560 nM | 890 nM
CCCC[C@@H]1OC(=O)C2=CCCC[C@H]21 | 1630 nM | 6380 nM
CCSCCSP(=O)(OC)OC | 13800 nM | 20600 nM

Now from value to compound:

IC50 [1] | IC50 [2] | SMILES
2000 nM | 629 nM | CC(C)=CCN1Cc2cc(C)cc3[nH]c(=S)n(c23)CC1C (centres undefined)
1280 nM | 1420 nM | CC(C)=CCN1Cc2cc(Cl)c(Cl)c3nc(S)n(c23)C[C@@H]1C
860 nM | 3310 nM | CCOC(=O)C1=C(C)N=c2s/c(=C\c3ccc(N4CCOCC4)cc3)c(=O)n2C1c1ccccc1 (centres undefined)
